Biological target: PD-1/PD-L1 interaction (PD-1-Ig / PD-L1-His) (Homo sapiens (Human), UniProt Q9NZQ7)
Assay: PD-1/PD-L1 Homogenous Time-Resolved Fluorescence (HTRF) binding assay
Conditions: PD-L1-His 10 nM final, PD-1-Ig 20 nM final
From the text: The ability of the compounds of formula (I) to bind to PD-L1 was investigated using a PD-1/PD-L1 Homogenous Time-Resolved Fluorescence (HTRF) binding assay.
1. Homogenous Time-Resolved Fluorescence (HTRF) Binding Assay.
The interaction of PD-1 and PD-L1 can be assessed using soluble, purified preparations of the extracellular domains of the two proteins. The PD-1 and PD-L1 protein extracellular domains were expressed as fusion proteins with detection tags, for PD-1, the tag was the Fc portion of Immunoglobulin (PD-1-Ig) and for PD-L1 it was the 6 histidine motif (PD-L1-His). All binding studies were performed in an HTRF assay buffer consisting of dPBS supplemented with 0.1% […] bovine serum albumin and 0.05% (v/v) Tween-20. For the h/PD-L1-His binding assay, inhibitors were pre-incubated with PD-L1-His (10 nM final) for 15 m in 4 μl of assay buffer, followed by addition of PD-1-Ig (20 nM final) in 1 μl of assay buffer and further incubation for 15 m. HTRF detection was achieved using europium crypate-labeled anti-Ig (1 nM final) and allophycocyanin (APC) labeled anti-His (20 nM final). Antibodies were diluted in HTRF detection buffer and 5 μl was dispensed on top of the binding reaction. The reaction mixture was allowed to equilibrate for 30 minutes and the resulting signal (665 nm/620 nm ratio) was obtained using an EnVision fluorometer. Additional binding assays were established between the human proteins PD-1-Ig/PD-L2-His (20 & 5 nM, respectively) and CD80-His/PD-L1-Ig (100 & 10 nM, respectively).
Recombinant Proteins: Human PD-1 (25-167) with a C-terminal human Fc domain of immunoglobulin G (Ig) epitope tag [hPD-1 (25-167)-3S-IG] and human PD-L1 (18-239) with a C-terminal His epitope tag [hPD-L1 (18-239)-TVMV-His] were expressed in HEK293T cells and purified sequentially by ProteinA affinity chromatography and size exclusion chromatography. Human PD-L2-His and CD80-His was obtained through commercial sources.

Sequence of PD-1/PD-L1 interaction (PD-1-Ig / PD-L1-His) (Q9NZQ7 other isoform, or with tags, fused parts or gaps): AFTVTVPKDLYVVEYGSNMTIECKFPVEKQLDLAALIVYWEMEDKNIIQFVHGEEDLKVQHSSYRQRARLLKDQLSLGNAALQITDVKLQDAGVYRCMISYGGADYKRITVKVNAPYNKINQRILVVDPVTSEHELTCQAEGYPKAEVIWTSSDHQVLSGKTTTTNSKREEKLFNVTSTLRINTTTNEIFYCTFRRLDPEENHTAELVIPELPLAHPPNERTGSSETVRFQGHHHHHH

O=C(CCCN1CC[C@@H](OCc2ccccc2)C1)N1CCCC2(CCCN(C(=O)CCCN3CC[C@@H](OCc4ccccc4)C3)C2)C1 [Example 1001, 1,1′-(2,8-diazaspiro[5.5]undecane-2,8-diyl)bis(4-((R)-3-(benzyloxy)pyrrolidin-1-yl)butan-1-one)]
IC50: > 2.5 µM

O=C(CCCN1CC[C@@H](O)C1)N1CCCC2(CCCN(C(=O)CCCN3CC[C@@H](O)C3)C2)C1 [Example 1002, 1,1′-(2,8-diazaspiro[5.5]undecane-2,8-diyl)bis(4-((R)-3-hydroxypyrrolidin-1-yl)butan-1-one)]
IC50: 0.84 µM

C[C@@](CO)(NCc1cc(Cl)c(CCC(=O)N2CCCC3(CCCN(C(=O)CCCN4CC[C@@H](OCc5ccccc5)C4)C3)C2)cc1OCc1cncc(C(N)=O)c1)C(=O)O (stereo partly drawn) [Example 1003, (2S)-2-((4-(3-(8-(4-((R)-3-(benzyloxy)pyrrolidin-1-yl)butanoyl)-2,8-diazaspiro[5.5]undecan-2-yl)-3-oxopropyl)-2-((5-carbamoylpyridin-3-yl)methoxy)-5-chlorobenzyl)amino)-3-hydroxy-2-methylpropanoic acid]
IC50: > 10 µM

C[C@@](CO)(NCc1cc(Cl)c(CCC(=O)N2CCCC3(CCCN(C(=O)CCCN4CC[C@@H](OCc5ccccc5)C4)C3)C2)cc1OCc1cncc(C#N)c1)C(=O)O (stereo partly drawn) [Example 1004, (2S)-2-((4-(3-(8-(4-((R)-3-(benzyloxy)pyrrolidin-1-yl)butanoyl)-2,8-diazaspiro[5.5]undecan-2-yl)-3-oxopropyl)-5-chloro-2-((5-cyanopyridin-3-yl)methoxy)benzyl)amino)-3-hydroxy-2-methylpropanoic acid]
IC50: > 10 µM

COC(=O)c1cncc(COc2cc(CCC(=O)N3CCCC4(CCCN(C(=O)CCCN5CC[C@@H](OCc6ccccc6)C5)C4)C3)c(Cl)cc2CN[C@@](C)(CO)C(=O)O)c1 (stereo partly drawn) [Example 1005, (2S)-2-((4-(3-(8-(4-((R)-3-(benzyloxy)pyrrolidin-1-yl)butanoyl)-2,8-diazaspiro[5.5]undecan-2-yl)-3-oxopropyl)-5-chloro-2-((5-(methoxycarbonyl)pyridin-3-yl)methoxy)benzyl)amino)-3-hydroxy-2-methylpropanoic acid]
IC50: > 10 µM

Reference: patent US11414418B2, “Compounds useful as immunomodulators” (Bristol-Myers Squibb Company, priority 2018, dated 2022)
